{"source": "patent US20190247361A1", "about": "“OXYTOCIN ANTAGONIST DOSING REGIMENS FOR PROMOTING EMBRYO IMPLANTATION AND PREVENTING MISCARRIAGE” (ObsEva S.A., priority 2016, published 2019)", "key": {"CYP2C19": {"molecular_target": "CYP2C19 (Homo sapiens, UniProt P33261)", "sequence (P33261 whole entry, canonical isoform)": "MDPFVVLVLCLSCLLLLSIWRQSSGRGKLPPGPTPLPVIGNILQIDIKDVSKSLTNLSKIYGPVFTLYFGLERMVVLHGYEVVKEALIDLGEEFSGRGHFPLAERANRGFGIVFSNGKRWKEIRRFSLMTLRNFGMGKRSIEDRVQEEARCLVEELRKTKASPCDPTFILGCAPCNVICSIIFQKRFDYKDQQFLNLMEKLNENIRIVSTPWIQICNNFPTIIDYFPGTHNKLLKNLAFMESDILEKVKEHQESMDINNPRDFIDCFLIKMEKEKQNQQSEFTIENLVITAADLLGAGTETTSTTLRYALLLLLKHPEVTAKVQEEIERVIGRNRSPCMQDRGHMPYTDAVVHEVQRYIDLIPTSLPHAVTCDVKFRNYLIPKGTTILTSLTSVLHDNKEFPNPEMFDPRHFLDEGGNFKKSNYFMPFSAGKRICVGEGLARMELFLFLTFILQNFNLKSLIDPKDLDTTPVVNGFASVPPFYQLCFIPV", "assay": "metabolism by CYP2C19 isoform", "assay_type": "in vitro ADME", "settings": "for Compound Remaining (% of compound present at t = 0 min): 5 μM", "experimental": "(§1) At five time points over the course of a 45 minute experiment, the compounds were analyzed by LC-MS/MS. The percentage of each compound remaining at each time point, along with the metabolic half-lives of each compound in the presence of each cytochrome P450 isoform, are indicated in Tables 10-12, below."}, "[1]": {"settings": "in vivo, cited from earlier work"}, "CYP3A4": {"molecular_target": "CYP3A4 (Homo sapiens, UniProt P08684)", "sequence (P08684 whole entry, canonical isoform)": "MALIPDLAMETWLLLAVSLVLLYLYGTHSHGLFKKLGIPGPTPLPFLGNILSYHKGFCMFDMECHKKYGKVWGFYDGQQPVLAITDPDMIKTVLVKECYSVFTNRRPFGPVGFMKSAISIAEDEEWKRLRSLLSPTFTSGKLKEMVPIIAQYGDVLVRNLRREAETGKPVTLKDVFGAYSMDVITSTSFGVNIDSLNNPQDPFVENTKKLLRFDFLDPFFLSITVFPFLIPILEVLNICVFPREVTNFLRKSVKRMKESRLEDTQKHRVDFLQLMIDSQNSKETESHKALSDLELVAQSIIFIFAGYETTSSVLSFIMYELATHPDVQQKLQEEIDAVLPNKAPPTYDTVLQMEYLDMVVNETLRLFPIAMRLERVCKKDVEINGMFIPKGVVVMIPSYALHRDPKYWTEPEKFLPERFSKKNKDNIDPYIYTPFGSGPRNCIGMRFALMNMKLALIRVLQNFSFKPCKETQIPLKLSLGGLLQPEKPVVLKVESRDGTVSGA", "assay": "metabolism by CYP3A4 isoform", "assay_type": "in vitro ADME", "settings": "for Compound Remaining (% of compound present at t = 0 min): 5 μM", "experimental": "as §1"}, "HEK293EBNA cells": {"test_system": "HEK293EBNA cells", "settings": "suppressing Ca^2+ mobilization in cultured HEK293EBNA cells; cited from earlier work"}, "[2]": {"assay": "serum compound (II) level at time of embryo transfer (Phase 2 study)", "assay_type": "in vivo", "settings": "female, human, oral, about 3.5 hours after administration, mean (standard deviation)", "experimental": "From one to two embryos of good quality were transferred to each subject. To reduce uterine contractions at the time of embryo transfer, soft or ultra-soft catheters were used and contact with the uterine fundus was avoided. Any difficulties that occurred during the embryo transfer procedure were recorded, including instances in which uterine sounding or cervical dilation were required, instances in which a harder catheter was required, or instances in which blood was found in any part of the catheter."}, "[3]": {"test_system": "cytochrome P450 in combination with UGT", "assay": "microsomal stability, pooled liver microsomes, cytochrome P450 in combination with UGT", "assay_type": "in vitro ADME", "settings": "45 minute experiment", "experimental": "At five time points over the course of a 45 minute experiment, the compounds were analyzed by liquid chromatography and tandem mass spectrometry (LC-MS/MS). Intrinsic clearance values (CLint) with standard error (SE CLint) and metabolic half-life (t1/2) were calculated and are indicated in Table 9, below."}, "[4]": {"test_system": "spontaneous uterine contractions", "settings": "anesthetized late-term pregnant rats, cited from earlier work"}, "CYP2D6": {"molecular_target": "CYP2D6 (Homo sapiens, UniProt P10635)", "sequence (P10635 whole entry, canonical isoform)": "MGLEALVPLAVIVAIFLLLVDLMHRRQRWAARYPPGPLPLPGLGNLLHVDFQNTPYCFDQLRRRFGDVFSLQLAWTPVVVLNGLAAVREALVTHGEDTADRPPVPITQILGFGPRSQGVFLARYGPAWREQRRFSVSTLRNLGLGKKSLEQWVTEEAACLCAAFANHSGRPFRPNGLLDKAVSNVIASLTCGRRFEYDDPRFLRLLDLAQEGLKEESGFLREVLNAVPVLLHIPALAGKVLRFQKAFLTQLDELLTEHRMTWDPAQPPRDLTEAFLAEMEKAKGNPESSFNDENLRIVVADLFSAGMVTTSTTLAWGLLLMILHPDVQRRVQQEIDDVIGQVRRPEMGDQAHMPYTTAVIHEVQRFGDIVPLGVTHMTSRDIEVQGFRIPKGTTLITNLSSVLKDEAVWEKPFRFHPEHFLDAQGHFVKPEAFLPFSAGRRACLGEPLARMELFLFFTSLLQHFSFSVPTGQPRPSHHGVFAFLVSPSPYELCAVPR", "assay": "metabolism by CYP2D6 isoform", "assay_type": "in vitro ADME", "settings": "for Compound Remaining (% of compound present at t = 0 min): 5 μM", "experimental": "as §1"}}, "data": [{"smiles": "CO/N=C1/C[C@@H](CO)N(C(=O)c2ccc(-c3ccccc3C)cc2)C1", "note": "[Compound (II), (3Z,5S)-5-(hydroxymethyl)-1-[(2′-methyl-1,1′-biphenyl-4-yl)carbonyl]pyrrolidin-3-one O-methyloxime]", "values": [{"measurement": "Compound Remaining (% of compound present at t = 0 min)", "setting": "CYP2C19; 0 min", "result": 100, "unit": "%"}, {"measurement": "Compound Remaining (% of compound present at t = 0 min)", "setting": "CYP2C19; 5 min", "result": 93.7, "unit": "%"}, {"measurement": "Compound Remaining (% of compound present at t = 0 min)", "setting": "CYP2C19; 15 min", "result": 79.1, "unit": "%"}, {"measurement": "Compound Remaining (% of compound present at t = 0 min)", "setting": "CYP2C19; 30 min", "result": 67.8, "unit": "%"}, {"measurement": "Compound Remaining (% of compound present at t = 0 min)", "setting": "CYP2C19; 45 min", "result": 59.9, "unit": "%"}, {"measurement": "half-life at 5 μM", "setting": "CYP2C19; human", "result": 1.01, "unit": "h"}, {"measurement": "oral bioavailability", "setting": "[1]; po", "result": "42-100%"}, {"measurement": "serum half-life", "setting": "[1]", "result": "11 to 12", "unit": "h"}, {"measurement": "tmax", "setting": "[1]", "result": "1 to 4", "unit": "h"}, {"measurement": "Compound Remaining (% of compound present at t = 0 min)", "setting": "CYP3A4; 0 min", "result": 100, "unit": "%"}, {"measurement": "Compound Remaining (% of compound present at t = 0 min)", "setting": "CYP3A4; 5 min", "result": 86.5, "unit": "%"}, {"measurement": "Compound Remaining (% of compound present at t = 0 min)", "setting": "CYP3A4; 15 min", "result": 75.9, "unit": "%"}, {"measurement": "Compound Remaining (% of compound present at t = 0 min)", "setting": "CYP3A4; 30 min", "result": 67.3, "unit": "%"}, {"measurement": "Compound Remaining (% of compound present at t = 0 min)", "setting": "CYP3A4; 45 min", "result": 63.9, "unit": "%"}, {"measurement": "half-life at 5 μM", "setting": "CYP3A4; human", "result": 1.23, "unit": "h"}, {"measurement": "IC50", "setting": "HEK293EBNA cells", "result": 81, "unit": "nM"}, {"measurement": "concentration at 3.5 h", "setting": "[2]; 100 mg dose", "result": 484, "unit": "ng/mL"}, {"measurement": "concentration at 3.5 h", "setting": "[2]; 300 mg dose", "result": 1450, "unit": "ng/mL"}, {"measurement": "concentration at 3.5 h", "setting": "[2]; 900 mg dose", "result": 4160, "unit": "ng/mL"}, {"measurement": "microsomal CLint at 3 μM", "setting": "[3]; read-out: CLint, Metabolic Stability - CYP/UGT", "result": 9.33, "unit": "µL/min/mg"}, {"measurement": "half-life at 3 μM", "setting": "[3]; read-out: t1/2, Metabolic Stability - CYP/UGT", "result": 2.48, "unit": "h"}, {"measurement": "effect on spontaneous uterine contractions", "setting": "[4]; 10, 30, and 60 mg/kg", "result": "dose-dependent reduction in spontaneous uterine contractions"}, {"measurement": "Inhibition of spontaneous uterine contractions", "setting": "[4]; from 170 to 180 minutes after oral administration at a dose of 60 mg/kg", "result": "about 42%"}, {"measurement": "Compound Remaining (% of compound present at t = 0 min)", "setting": "CYP2D6; 0 min", "result": 100, "unit": "%"}, {"measurement": "Compound Remaining (% of compound present at t = 0 min)", "setting": "CYP2D6; 5 min", "result": 80.3, "unit": "%"}, {"measurement": "Compound Remaining (% of compound present at t = 0 min)", "setting": "CYP2D6; 15 min", "result": 50.5, "unit": "%"}, {"measurement": "Compound Remaining (% of compound present at t = 0 min)", "setting": "CYP2D6; 30 min", "result": 22.5, "unit": "%"}, {"measurement": "Compound Remaining (% of compound present at t = 0 min)", "setting": "CYP2D6; 45 min", "result": 12.2, "unit": "%"}, {"measurement": "half-life at 5 μM", "setting": "CYP2D6; human", "result": 0.242, "unit": "h"}]}]}
